What was measured:
Experiment in all cases: Bliss excess, mean over the matrix (fraction); higher = more synergy
[1] = system: LOU-NH91 (Squamous Cell Lung Carcinoma)
How it was run: (§1)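 Cell lines in DMEM/F12 or RPMI with 10% FBS were plated in 1536-well plates, held 24 hours at 37°C, 5% CO2, then given two-drug dose matrices for 72 hours (DMSO typically 0.2%). Viability was read by CellTiter-Glo 2.0 luminescence and scaled as inhibition from 0 (vehicle wells) to 1 (blank wells). Combination Emax is the second-highest inhibition in the matrix; Bliss excess is observed combination effect minus expected EA + EB − EA·EB, EA and EB being single-agent effects.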

[2] = system: NCI-H2347 (Lung Adenocarcinoma)
How it was run: as §1

[3] = system: BV-173 (Chronic Myelogenous Leukemia)
How it was run: as §1

[4] = system: HC-1 (Other Blood Carcinomas)
How it was run: as §1

U-87-MG (Glioblastoma) = system: U-87-MG (Glioblastoma)
How it was run: as §1

[5] = system: KYSE-150 (Esophageal Squamous Cell Carcinoma)
How it was run: as §1

IMR-5 (Neuroblastoma) = system: IMR-5 (Neuroblastoma)
How it was run: as §1

RPMI-7951 (Melanoma) = system: RPMI-7951 (Melanoma)
How it was run: as §1

[6] = system: MFE-319 (Endometrial Carcinoma)
How it was run: as §1

[7] = system: ASH-3 (Thyroid Gland Carcinoma)
How it was run: as §1

[8] = system: HSC-2 (Oral Cavity Carcinoma)
How it was run: as §1

[9] = system: H-EMC-SS (Chondrosarcoma)
How it was run: as §1

EW-3 (Ewing's Sarcoma) = system: EW-3 (Ewing's Sarcoma)
How it was run: as §1

[10] = system: PF-382 (T-Lymphoblastic Leukemia)
How it was run: as §1

SMILES | Bliss excess [1] | Bliss excess [2] | Bliss excess [3] | Bliss excess [4] | Bliss excess (U-87-MG (Glioblastoma)) | Bliss excess [5] | Bliss excess (IMR-5 (Neuroblastoma)) | Bliss excess (RPMI-7951 (Melanoma)) | Bliss excess [6] | Bliss excess [7] | Bliss excess [8] | Bliss excess [9] | Bliss excess (EW-3 (Ewing's Sarcoma)) | Bliss excess [10]
CN(CCO)CC[C@H](CSc1ccccc1)Nc1ccc(S(=O)(=O)NC(=O)c2ccc(N3CCC([C@@H](O)c4ccccc4-c4ccc(Cl)cc4)CC3)cc2)cc1S(=O)(=O)C(F)(F)F [AZD4320] + C[C@@H](Nc1cc(F)cc(F)c1)c1cc(C(=O)N(C)C)cc2c(=O)cc(N3CCOCC3)oc12 [AZD8186] (first compound max 1 µM, 7x7, partner max 3 µM) | -0.0046 | 0.126 | 0.0166 | 0.0252 | 0.0472 | -0.0055 | 0.0508 | 0.0019 | 0.0048 | -0.051 | -0.0401 | -0.0277 | -0.0324 | 0.0836
CN(CCO)CC[C@H](CSc1ccccc1)Nc1ccc(S(=O)(=O)NC(=O)c2ccc(N3CCC([C@@H](O)c4ccccc4-c4ccc(Cl)cc4)CC3)cc2)cc1S(=O)(=O)C(F)(F)F [AZD4320] + Cc1cc2ncnn2cc1Nc1ncc2c(n1)n(C1CCOCC1)c(=O)n2C [AZD7648] (first compound max 1 µM, 7x7, partner max 10 µM) | -0.012 | -0.0312 | -0.0643 | 0.0352 | -0.0503 | -0.0396 | 0.0335 | -0.0109 | -0.0557 | -0.0866 | 0.0257 | -0.0218 | 0.015 | 0.0269
CN(CCO)CC[C@H](CSc1ccccc1)Nc1ccc(S(=O)(=O)NC(=O)c2ccc(N3CCC([C@@H](O)c4ccccc4-c4ccc(Cl)cc4)CC3)cc2)cc1S(=O)(=O)C(F)(F)F [AZD4320] + Cn1cnc2c(F)c(Nc3ccc(Br)cc3Cl)c(C(=O)NOCCO)cc21 [Selumetinib] (first compound max 1 µM, 7x7, partner max 3 µM) | 0.0027 | 0.0288 | -0.018 | 0.0026 | -0.0117 | -0.0152 | 0.0409 | -0.006 | 0.0645 | -0.026 | 0.0195 | -0.0378 | -0.0118 | 0.0409
COc1nnc2ccc(N3CCC(c4ccc(OCCN5CCN(C)C(=O)[C@H]5C)cc4)CC3)nn12 [AZD5153] + C=CCn1c(=O)c2cnc(Nc3ccc(N4CCN(C)CC4)cc3)nc2n1-c1cccc(C(C)(C)O)n1 [AZD1775] (first compound max 1 µM, partner max 1 µM) | 0.0216 | 0.0293 | -0.0256 | -0.078 | -0.119 | -0.049 | -0.0213 | -0.0223 | -0.13 | -0.024 | -0.0167 | -0.0488 | -0.122 | -0.0176
COc1nnc2ccc(N3CCC(c4ccc(OCCN5CCN(C)C(=O)[C@H]5C)cc4)CC3)nn12 [AZD5153] + CC1(C)CCC(CN2CCN(c3ccc(C(=O)NS(=O)(=O)c4ccc(NCC5CCOCC5)c([N+](=O)[O-])c4)c(Oc4cnc5[nH]ccc5c4)c3)CC2)=C(c2ccc(Cl)cc2)C1 [Venetoclax] (first compound max 1 µM, 7x7, partner max 1 µM) | -0.0758 | -0.11 | -0.0706 | 0.0089 | -0.0343 | 0.0061 | -0.0119 | -0.0292 | -0.124 | 0.0122 | -0.0196 | -0.0508 | -0.0801 | -0.0551
COc1nnc2ccc(N3CCC(c4ccc(OCCN5CCN(C)C(=O)[C@H]5C)cc4)CC3)nn12 [AZD5153] + CCN(CCO)CCCOc1ccc2c(Nc3cc(CC(=O)Nc4cccc(F)c4)[nH]n3)ncnc2c1 [AZD2811] (first compound max 1 µM, 7x7, partner max 1 µM) | -0.0363 | -0.0549 | -0.0561 | -0.0099 | 0.0005 | -0.0134 | -0.0151 | -0.0243 | -0.085 | -0.0284 | -0.0106 | -0.0226 | -0.115 | -0.0108
COc1nnc2ccc(N3CCC(c4ccc(OCCN5CCN(C)C(=O)[C@H]5C)cc4)CC3)nn12 [AZD5153] + C[C@@H]1COCCN1C2=NC(=NC(=C2)C3(CC3)[S@](=N)(=O)C)C4=C5C=CNC5=NC=C4 [AZD6738] (first compound max 1 µM, 7x7, partner max 10 µM) | -0.0012 | 0.0599 | -0.0506 | -0.0468 | 0.0506 | -0.0482 | 0.0121 | 0.0423 | -0.0852 | -0.025 | -0.0039 | -0.0001 | -0.0647 | 0.0239
COc1nnc2ccc(N3CCC(c4ccc(OCCN5CCN(C)C(=O)[C@H]5C)cc4)CC3)nn12 [AZD5153] + Cc1c2c(nn1C)CSCc1cc(n(C)n1)CSc1cc(c3ccccc3c1)OCCCc1c(C(=O)O)n(C)c3c-2c(Cl)ccc13 [AZD5991] (first compound max 1 µM, 7x7, partner max 1 µM) | -0.0449 | -0.0198 | 0.0184 | 0.0424 | 0.0336 | -0.0732 | -0.0178 | -0.0575 | -0.0227 | -0.114 | -0.0731 | -0.0212 | 0.0114 | 0.0145
COc1nnc2ccc(N3CCC(c4ccc(OCCN5CCN(C)C(=O)[C@H]5C)cc4)CC3)nn12 [AZD5153] + Cn1cnc2c(F)c(Nc3ccc(Br)cc3Cl)c(C(=O)NOCCO)cc21 [Selumetinib] (first compound max 1 µM, 7x7, partner max 10 µM) | -0.0463 | -0.0361 | -0.0503 | -0.105 | -0.0591 | 0.0195 | -0.0047 | 0.02 | -0.0265 | -0.0338 | 0.045 | 0.0176 | -0.0625 | 0.0686
Cc1c2c(nn1C)CSCc1cc(n(C)n1)CSc1cc(c3ccccc3c1)OCCCc1c(C(=O)O)n(C)c3c-2c(Cl)ccc13 [AZD5991] + C1CN(CCC1(C(=O)N[C@@H](CCO)C2=CC=C(C=C2)Cl)N)C3=NC=NC4=C3C=CN4 [Capivasertib] (first compound max 1 µM, 7x7, partner max 3 µM) | 0.0122 | -0.0313 | -0.0621 | -0.0475 | 0.0264 | 0.039 | 0.0045 | 0.0035 | 0.111 | -0.0769 | 0.138 | -0.0227 | 0.0032 | -0.0203
Cc1c2c(nn1C)CSCc1cc(n(C)n1)CSc1cc(c3ccccc3c1)OCCCc1c(C(=O)O)n(C)c3c-2c(Cl)ccc13 [AZD5991] + CCN(CCO)CCCOc1ccc2c(Nc3cc(CC(=O)Nc4cccc(F)c4)[nH]n3)ncnc2c1 [AZD2811] (first compound max 1 µM, 7x7, partner max 1 µM) | 0.0225 | 0.0102 | -0.0554 | 0.13 | 0.0065 | -0.0339 | -0.0117 | -0.0924 | 0.0215 | -0.014 | 0.0322 | 0.027 | 0.05 | 0.0276
Cc1c2c(nn1C)CSCc1cc(n(C)n1)CSc1cc(c3ccccc3c1)OCCCc1c(C(=O)O)n(C)c3c-2c(Cl)ccc13 [AZD5991] + CN(C)CCCOc1ccc(-c2ccc3ncc4c(c3c2)n(C2CCOCC2)c(=O)n4C)cn1 [AZD0156] (first compound max 1 µM, 7x7, partner max 1 µM) | 0.01 | -0.0188 | -0.114 | -0.0479 | -0.0477 | -0.0143 | -0.0194 | -0.0382 | 0.0347 | -0.0253 | -0.0089 | -0.0106 | -0.0499 | 0.0109
Cc1c2c(nn1C)CSCc1cc(n(C)n1)CSc1cc(c3ccccc3c1)OCCCc1c(C(=O)O)n(C)c3c-2c(Cl)ccc13 [AZD5991] + C[C@@H]1COCCN1C2=NC(=NC(=C2)C3(CC3)[S@](=N)(=O)C)C4=C5C=CNC5=NC=C4 [AZD6738] (first compound max 1 µM, 7x7, partner max 10 µM) | 0.0408 | -0.0489 | -0.0537 | 0.0639 | -0.0241 | 0.0556 | 0.0245 | 0.0095 | 0.05 | 0.0554 | -0.0459 | 0.0187 | 0.0207 | 0.063
Cc1c2c(nn1C)CSCc1cc(n(C)n1)CSc1cc(c3ccccc3c1)OCCCc1c(C(=O)O)n(C)c3c-2c(Cl)ccc13 [AZD5991] + C[C@@H](Nc1cc(F)cc(F)c1)c1cc(C(=O)N(C)C)cc2c(=O)cc(N3CCOCC3)oc12 [AZD8186] (first compound max 1 µM, 7x7, partner max 3 µM) | -0.0542 | 0.0251 | -0.0917 | 0.0381 | -0.097 | -0.0127 | -0.0006 | 0.0878 | 0.0209 | 0.0027 | 0.0042 | -0.0325 | -0.0129 | 0.005
Cc1c2c(nn1C)CSCc1cc(n(C)n1)CSc1cc(c3ccccc3c1)OCCCc1c(C(=O)O)n(C)c3c-2c(Cl)ccc13 [AZD5991] + Cn1cnc2c(F)c(Nc3ccc(Br)cc3Cl)c(C(=O)NOCCO)cc21 [Selumetinib] (first compound max 1 µM, 7x7, partner max 3 µM) | -0.025 | -0.0006 | 0.0265 | 0.0827 | -0.0073 | 0.0402 | -0.0154 | -0.0072 | -0.0233 | 0.0175 | -0.0024 | -0.017 | -0.0435 | 0.0006
NC1(C(=O)N[C@@H](CCO)c2ccc(Cl)cc2)CCN(c2ncnc3[nH]ccc23)CC1 [Capivasertib] + CC(=O)c1c(C)c2cnc(Nc3ccc(N4CCNCC4)cn3)nc2n(C2CCCC2)c1=O [Palbociclib] (first compound max 10 µM, 7x7, partner max 10 µM) | -0.0617 | -0.0459 | -0.0452 | -0.0705 | -0.0097 | 0.0446 | 0.0514 | 0.0186 | -0.0339 | -0.0235 | -0.0207 | -0.0375 | 0.0062 | -0.0151
NC1(C(=O)N[C@@H](CCO)c2ccc(Cl)cc2)CCN(c2ncnc3[nH]ccc23)CC1 [Capivasertib] + CC(C)n1c(=O)n(C)c2cnc3cc(F)c(-c4ccc(OCCCN5CCCCC5)nc4)cc3c21 [AZD1390] (first compound max 10 µM, 7x7, partner max 0.3 µM) | -0.0997 | -0.0524 | -0.0639 | -0.0706 | -0.0703 | 0.0164 | -0.0487 | -0.0748 | -0.0921 | -0.0478 | -0.0117 | -0.0296 | -0.0908 | -0.0211

Reference: the supplement of paper PMC11061612
